# Source: paper PMC11589570, “Critical assessment of LC3/GABARAP ligands used for degrader development and ligandability of LC3/GABARAP binding pockets” (Nature Communications, 2024)
# Read-outs that look alike come from different tables or passages of the source.
# What was measured:
# GABARAPL2 = GABARAPL2 (Homo sapiens, UniProt P60520); conditions: GABARAPL2:ligand molar ratio 1:2
# [1] = system: RPE-1 GFP-LC3B-RPF-LC3∆G reporter cell line; experiment: Autophagy flux assay; format: cell-based; conditions: rebuttal letter
# Description: LC3/GABARAP in vitro, but no attempts are made to replicate the previously reported cellular activity of these compounds. It would be beneficial to know whether these compounds have any effect on autophagy in the authors’ hands, and therefore could act by alternative mechanisms, or whether they […]
# Response: We were very concerned that the ligands used for ATTEC development might induce general toxicity in cell lines, as they are based on drugs used in oncology (such as the kinesin inhibitor 10O5) and the isoxazole scaffold often used in the development of multi-targeted kinase inhibitors. However, we have now investigated compounds 1-4 in autophagy flux assays using the RPE-1 GFP-LC3B-RPF-LC3∆G reporter cell line (single clone) as […]
# reported in [PMID:37558952].
# (RR_Figure 6). The authors of the first manuscript reporting these ligands [PMID: 31666698]
# However, due to the potent activity of 8F20 on KIF11, which will have profound effects on cell trafficking and growth, and DCAF11 (AN1, [PMID: 38036533]), we find it unlikely that the effects on autophagy are due to LC3/GABARAP modulation. Due to the lack of target (LC3/GABARAP) binding in vitro and the […]
# of this review but have excluded the data in the manuscript.
# RR_figure 5: Autophagy flux measurement for 10O5 and AN2. No induction of autophagy or effects (right panels, assessed by Incucyte (Sartorius) life cell imaging) on cell growth was […]
# RR_figure 6: Autophagy flux measurement for 8F20 and AN1 show changes in autophagy flux […]
# It is not clear how many biological replicates have been performed. For example, the figure legends […]
# Chain of GABARAPL2 (P60520 whole entry): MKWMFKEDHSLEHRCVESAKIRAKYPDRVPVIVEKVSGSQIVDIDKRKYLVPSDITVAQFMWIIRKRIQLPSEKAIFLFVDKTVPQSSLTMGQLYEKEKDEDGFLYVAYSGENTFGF
structure (smiles),measurement,setting,value
O=c1cc(-c2ccccc2)c2c(O)cc(O)cc2o1 [compound 2],CSP,GABARAPL2; residue A19,0.010 ppm
same,CSP,GABARAPL2; residue A23,0.008 ppm
same,CSP,GABARAPL2; residue A58,0.00237 ppm
same,CSP,GABARAPL2; residue A108,0.00221 ppm
same,CSP,GABARAPL2; residue C15,0.005 ppm
same,CSP,GABARAPL2; residue D45,0.004 ppm
same,CSP,GABARAPL2; residue D54,0.006 ppm
same,CSP,GABARAPL2; residue D81,0.00283 ppm
same,CSP,GABARAPL2; residue D100,0.00367 ppm
same,CSP,GABARAPL2; residue D102,0.009 ppm
same,CSP,GABARAPL2; residue E12,0.00212 ppm
same,CSP,GABARAPL2; residue E17,0.006 ppm
same,CSP,GABARAPL2; residue E34,0.010 ppm
same,CSP,GABARAPL2; residue E73,0.00212 ppm
same,CSP,GABARAPL2; residue E96,0.004 ppm
same,CSP,GABARAPL2; residue E112,0.002 ppm
same,CSP,"GABARAPL2; residue F5, estimated",0.005 ppm
same,CSP,GABARAPL2; residue F60,0.005 ppm
same,CSP,GABARAPL2; residue F77,0.00281 ppm
same,CSP,GABARAPL2; residue F104,0.016 ppm
same,CSP,GABARAPL2; residue F115,0.009 ppm
same,CSP,GABARAPL2; residue G38,0.012 ppm
same,CSP,GABARAPL2; residue G103,0.005 ppm
same,CSP,GABARAPL2; residue G111,0.008 ppm
same,CSP,GABARAPL2; residue H9,0.016 ppm
same,CSP,GABARAPL2; residue I21,0.005 ppm
same,CSP,GABARAPL2; residue I32,0.005 ppm
same,CSP,GABARAPL2; residue I41,0.007 ppm
same,CSP,GABARAPL2; residue I44,0.002 ppm
same,CSP,GABARAPL2; residue I55,0.00171 ppm
same,CSP,GABARAPL2; residue I63,0.003 ppm
same,CSP,GABARAPL2; residue I64,0.006 ppm
same,CSP,GABARAPL2; residue K2,0.005 ppm
same,CSP,GABARAPL2; residue K20,0.009 ppm
same,CSP,GABARAPL2; residue K24,0.005 ppm
same,CSP,GABARAPL2; residue K35,0.007 ppm
same,CSP,"GABARAPL2; residue K46, estimated",0.005 ppm
same,CSP,GABARAPL2; residue K48,0.007 ppm
same,CSP,GABARAPL2; residue K66,0.00316 ppm
same,CSP,GABARAPL2; residue K74,0.00148 ppm
same,CSP,"GABARAPL2; residue K82, estimated",0.005 ppm
same,CSP,GABARAPL2; residue K99,0.00444 ppm
same,CSP,GABARAPL2; residue L11,0.00212 ppm
same,CSP,GABARAPL2; residue L50,0.031 ppm
same,CSP,GABARAPL2; residue L70,0.00283 ppm
same,CSP,GABARAPL2; residue L78,0.0017 ppm
same,CSP,GABARAPL2; residue L94,0.007 ppm
same,CSP,GABARAPL2; residue L105,0.00636 ppm
same,CSP,GABARAPL2; residue M1,0.014 ppm
same,CSP,"GABARAPL2; residue M4, estimated",0.005 ppm
same,CSP,GABARAPL2; residue M61,0.00474 ppm
same,CSP,GABARAPL2; residue M91,0.005 ppm
same,CSP,"GABARAPL2; residue P26, estimated",0.005 ppm
same,CSP,"GABARAPL2; residue P30, estimated",0.010 ppm
same,CSP,"GABARAPL2; residue P52, estimated",0.005 ppm
same,CSP,"GABARAPL2; residue P71, estimated",0.005 ppm
same,CSP,"GABARAPL2; residue P85, estimated",0.005 ppm
same,CSP,GABARAPL2; residue Q40,0.0017 ppm
same,CSP,GABARAPL2; residue Q59,0.002 ppm
same,CSP,GABARAPL2; residue R14,0.0095 ppm
same,CSP,GABARAPL2; residue R28,0.00851 ppm
same,CSP,"GABARAPL2; residue R47, estimated",0.005 ppm
same,CSP,GABARAPL2; residue R65,0.0019 ppm
same,CSP,GABARAPL2; residue R67,0.004 ppm
same,CSP,GABARAPL2; residue S10,0.013 ppm
same,CSP,GABARAPL2; residue S18,0.002 ppm
same,CSP,GABARAPL2; residue S37,0.0065 ppm
same,CSP,GABARAPL2; residue S39,0.00356 ppm
same,CSP,GABARAPL2; residue S53,0.005 ppm
same,CSP,GABARAPL2; residue S88,0.00122 ppm
same,CSP,GABARAPL2; residue S110,0.00122 ppm
same,CSP,GABARAPL2; residue T83,0.00251 ppm
same,CSP,GABARAPL2; residue T114,0.00122 ppm
same,CSP,GABARAPL2; residue V29,0.0057 ppm
same,CSP,GABARAPL2; residue V31,0.025 ppm
same,CSP,GABARAPL2; residue V36,0.00316 ppm
same,CSP,GABARAPL2; residue V42,0.006 ppm
same,CSP,GABARAPL2; residue V51,0.009 ppm
same,CSP,GABARAPL2; residue V80,0.008 ppm
same,CSP,GABARAPL2; residue V84,0.00228 ppm
same,CSP,GABARAPL2; residue V107,0.006 ppm
same,CSP,GABARAPL2; residue W3,0.006 ppm
same,CSP,GABARAPL2; residue Y49,0.033 ppm
same,CSP,GABARAPL2; residue Y95,0.0022 ppm
same,CSP,GABARAPL2; residue Y106,0.007 ppm
same,CSP,GABARAPL2; residue Y109,0.007 ppm
same,autophagy induction (autophagy flux),[1],did not induce autophagy
same,effects on cell growth (Incucyte life cell imaging),[1],No induction of autophagy or effects
